From patent US20190330167A1, “ACTIVATORS OF HIV LATENCY” (priority 2016, published 2019)
Like-named read-outs stand apart in the source and are kept apart here.

What was measured:
[1] = tested on: latent HIV in resting memory CD4+ T cells isolated by leukapheresis from HIV+ donors on antiretroviral therapy; assay type: cell-based, HIV-1; details: 72 hrs
Description: FIG. 41a. […] Resting memory CD4+ T cells isolated by leukapheresis from HIV+ donors on antiretroviral therapy were reactivated for 72 hrs using known LRAs including vorinostat (Vor) also known as suberanilohydroxamic acid, another hydroxamic acid panobinostat (Pan), and the depsipeptide Romidepsin (Rom) that are all HDACi, together with JQ1 (+) which is a thienotriazolodiazepine known to inhibit the BET family of bromodomain proteins including BRD2, BRD3, and BRD4, and compared with compounds according to the present invention DP#6 (Compound 41), DP#14 (Compound 7), and DP#16 (Compound 64).
FIG. 41c. […] Resting memory CD4+ T cells isolated by leukapheresis from HIV+ donors on antiretroviral therapy were reactivated for 72 hrs using known (vorinostat, Vor; panobinostat, Pan; romidepsin, Rom; and JQ1 (+)) and compounds according to the present invention (DP#6 (Compound 41), DP#14 (Compound 7), and DP#16 (Compound 64)).
FIG. 42c. […] Resting memory CD4+ T cells isolated by leukapheresis from HIV+ donors on antiretroviral therapy were reactivated for 72 hrs using known (JQ1 (+)) and compounds according to the present invention (DP#14 (Compound 7)) alone and in combination, and HIV-1 RNA detected through qPCR.
Total peripheral blood mononuclear cells (PBMC) were stored frozen in liquid nitrogen and prior to use, vials of frozen cells (0.5×10^8 PBMCs/vial or 1×10^8 PBMCs/vial) were quick thawed in a 42° C. water bath. Cells were promptly transferred to a 15 mL tube with 5 mL FBS dropwise then, then 6 mL of RF10 was added. Cells were pelleted at 300 g for 10 min at room temperature. Following aspiration, the cells were resuspended in RF10, pooled into a 50 mL tube which was topped up with RF10. PBMC were pelleted again at 300 g for 10 min at room temperature. Following aspiration, the cells were resuspended in PBS(−/−) and counted. CD4+ T cells were then isolated from 4×10^8 PBMCs that were pelleted and resuspended in PBS(−/−) at 1×10^7 cells/40 μL. 10 μL of CD4+ T cell Biotin-Antibody cocktail (Miltenyi Biotec) for every 1×10^7 cells was added and the mix refrigerated for 5 min. 30 μL of PBS(−/−) for every 1×10^7 cells was added, and 20 μL of the CD4+ T cell MicroBeads for every 1×10^7 cells was added and the mix refrigerated for 10 min. Unlabelled CD4+ T cells were then isolated by negative selection using magnetic separation. CD4+ T cells were then counted before being diluted to 4×10^6 cells/500 μL in RF10 for each condition and seeded into a 48 well plate.
Latent HIV was reactivated in the presence of the HIV integrase inhibitor Raltagravir (Ral) to prevent any further rounds of infection. Ral was made to [2 μM] in RF10+IL-2 (2 U/mL), and used to make 1 mL preparation of each drug up at [×2]. 500 μL of the [×2 Ral/IL-2/drug] was then added to the appropriate wells containing cells. Cells were transported to PC3 and incubated for 72 hrs.
Following reactivation, 800 μL of cell supernatant was transferred to labeled 1.5 mL screwcap tubes, pelletted at 800 g for 10 min then transferred to a second set of tubes and frozen for possible use at a later date. 800 μL of PBS(−/−) was added to each well to mix the cells and 50 μL of cells transferred to another set of tubes for live/dead staining and flow cytometry. Cells were pelleted at 400 g for 10 min, the media aspirated and cells resuspended in 100 μL of a [×1] APC-cy7 live/dead stain (Life technologies).

[2] = tested on: J.Lat10.6 T-cell line; test: Dose dependent toxicity in the J.Lat model; assay type: cell-based; details: for concentration above which notable toxicity: dose dependent toxic effect
[3] = tested on: HIV-1 gene expression in J.Lat10.6 latently infected T-cell line; test: cells; assay type: cell-based; details: for IC50: Human immunodeficiency virus 1, J-Lat 10.6, 48 h, read-out: IC50 for reactivation of HIV-1 gene expression; for percent of the cells treated with reactivated HIV-1 gene expression: J.Lat10.6 model, alone at 10 μM and in combination, 48 hrs post treatment
Method: The J.Lat10.6 latently infected T-cell line was treated with 4 compounds of the present invention, DP#6 (Compound 41), DP#14 (Compound 7), DP#18 (Compound 65), and DP#19 (Compound 73) and reactivated for 48 hrs. HIV-1 reactivation was measured by flowcytometry for GFP expression. Error bars represent standard deviation of n=3 experiments.
FIG. 45. […] The J.Lat10.6 model of HIV-1 latency was treated with JQ1 (+) and DP#14 (Compound 7) alone at 10 μM and in combination, and the HIV-1 gene expression measured 48 hrs post treatment. Error bars represent standard deviation of n=3 experiments. OPTI represents media alone, without DP#14.
FIG. 47. […] The J.Lat10.6 model of HIV-1 latency was treated with PFI-1 and DP#14 alone at 10 μM and in combination, and the HIV-1 gene expression measured 48 hrs post treatment. Error bars represent standard deviation of n=3 experiments. OPTI represents media alone, without DP#14.
Compounds were also evaluated in a dose ranging titration with HIV latently infected cell lines (J.Lat 6.3 and 10.6). The specificity of the selected compounds in these cell line models, were measured by inserting a CMV-DS.Red reporter into these cells to co-ordinately measure HIV specific LTR-Green fluorescent protein and non-specific DS.Red expression during FACS analysis.
The J.Lat model of HIV-1 latency is a well-established model used widely and is described in detail in the following paper:
HIV reproducibly establishes a latent infection after acute infection of T cells in vitro, Eric Verdin et al, The EMBO Journal Vol. 22 No. 8 pp 1868-1877, 2003

[4] = tested on: HIV-1 long terminal repeat (LTR)-driven luciferase reporter gene in FlipIn.FM HEK293 cells; test: cells; assay type: cell-based; details: for EC50: Human immunodeficiency virus 1, HEK293, HIV-LTR driven latent reporter, 11-point, 2-fold dilution series, highest concentration 40 μM, read-out: Latent reporter Av EC50; for fold change in HIV-1 gene expression over the unstimulated baseline: FlipIn.FM model, alone at 10 μM and in combination, 48 hrs post treatment
Method: FIG. 44. […] The FlipIn.FM model of HIV-1 latency was treated with JQ1 (+) and DP#14 (Compound 7) alone at 10 μM and in combination, and the HIV-1 gene expression measured 48 hrs post treatment. Error bars represent standard deviation of n=3 experiments. OPTI represents media alone, without DP#14.
FIG. 46. […] The FlipIn.FM model of HIV-1 latency was treated with PFI-1 and DP#14 alone at 10 μM and in combination, and the HIV-1 gene expression measured 48 hrs post treatment. Error bars represent standard deviation of n=3 experiments. OPTI represents media alone, without DP#14.
Explicitly, HEK293 derived FlipIn-FM and FlipIn-RV dual reporter cells each include a single stable HIV-1 long terminal repeat (LTR)-driven luciferase reporter genes, with a second complimentary non-HIV (off-target) luciferase reporter. These cell lines model post integration latency and read-through transcription by expressing a low level of HIV-1 Tat protein via a native Internal Ribosome Entry Site (IRES) found within Tat, from a chimeric cellular-tat gene cassette. FlipIn-FM and FlipIn-RV clones were chosen for low basal levels of LTR activity and high responsiveness to Tat as well as many Latency Reversing Agents (LRAs).
The dual reporter cell lines contain three stably integrated constructs that together allow for detection of novel LRAs, capable of potent and specific HIV reactivation. The FlipIn.FM line contains a proviral LTR-driven nef/CBR reporter fusion gene, allowing for detection of viral gene expression. A second CMV-driven CBG luciferase reporter allows for detection of off target drug effects, including non-specific activation and drug toxicity. The third construct contains the first coding exon of HIV-1 tat, within human Growth Hormone (hGH) as a chimeric gene, expressing HIV-1 Tat protein from an IRES mechanism that underlies the tat exon. This construct models read-through transcription and the low level of Tat protein expression that occurs during post integration latency. The counter screening reverse cell line, FlipIn.RV, contains the same three components with the Click Beetle Luciferase genes in the opposite orientation (LTR-CBG and CMV-CBR) for counter screening.
Compounds were evaluated in an 11-point titration using normal CMV-CBG/LTR-CBR reporter cell line and an 11 point reverse CMV-CBR/LTR-CBG reporter cell line.
The FlipIn cell lines were therefore designed with a dual purpose, to detect novel compounds that reactivate HIV-1 and to also screen out compounds that behaved in a largely non-specific manner. To achieve the latter, the cell lines contain an “off target” reporter gene construct, driven by the unrelated CMV-IE promoter, that allows for the detection of drug mediated off target effects including global gene activation as well as possible toxicity.
The HIV-LTR driven latent reporter gene identifies the HIV-specific activation, and the term “global reporter” is interchangeable with “off target reporter” and refers to the unrelated CMV-IE promoter driven reporter gene, which is used as a surrogate for global gene activation. […] The highest concentration tested here was 40 μM.

[5] = normalized between unstimulated baseline and PMA positive control as 100%, concentration not given

Structure (SMILES)	IC50 [3]	EC50 [4]	induction of HIV-1 gene expression, % of the normalized value [1, 5]	other results
Cc1cnc(NC(=O)CCCOc2ccccc2)s1 [Compound 41]	~16500 nM	14000 nM		induction of HIV-1 gene expression, % of the normalized value ([1]; at 5 μM, normalized between unstimulated baseline and PMA as 100%): 25%; dose dependent toxicity ([2]; dosed as high as 40 μM): no such toxicity
Cc1ccc(N2CCN(C(=O)Nc3ncc(Cl)s3)CC2)cc1Cl [Compound 64]		220 nM		activation of HIV-1 gene expression in leukapheresis samples ([1]; at 100 nM, n=4 or n=5 donors): activation in only one patient
Cc1ccc(N2CCN(C(=O)Nc3ncc(C#N)s3)CC2)cc1Cl [Compound 65]	650 nM	330 nM		concentration above which notable toxicity [2]: above 1.25 μM
Cc1cnc(NC(=O)N2CCN(c3cnc(Cl)c(Cl)c3)CC2)s1 [Compound 73]	< 110 nM	280 nM		concentration above which notable toxicity [2]: > 156 nM
Cc1sc2c(c1C)C(c1ccc(Cl)cc1)=N[C@@H](CC(=O)OC(C)(C)C)c1nnc(C)n1-2 [JQ1 (+), reference compound]			39%	percent of the cells treated with reactivated HIV-1 gene expression [3]: 22.8%; fold change in HIV-1 gene expression over the unstimulated baseline [4]: 12.8 fold
COc1ccccc1S(=O)(=O)Nc1ccc2c(c1)CN(C)C(=O)N2 [PFI-1, reference compound]				percent of the cells treated with reactivated HIV-1 gene expression [3]: 20.6%; fold change in HIV-1 gene expression over the unstimulated baseline [4]: 3.6 fold
Cc1[nH]c2ccccc2c1CCNCc1ccc(/C=C/C(=O)NO)cc1 [Panabinostat, reference compound]			57%	
C/C=C1\NC(=O)[C@H]2CSSCC/C=C/[C@H](CC(=O)N[C@H](C(C)C)C(=O)N2)OC(=O)[C@H](C(C)C)NC1=O [Romidepsin, reference compound]			67%	
O=C(CCCCCCC(=O)Nc1ccccc1)NO [Vorinostat, suberanilohydroxamic acid, reference compound]			58%	
